In patent US11331280B2, “Methods for inhibiting conversion of choline to trimethylamine (TMA)” (The Procter & Gamble Company, priority 2018, dated 2022):

Experiments:
[1] = test system: Proteus mirabilis 29906 (Pm) lysate; experiment: Example 10: inhibition of formation of TMA from choline by compounds in Proteus mirabilis lysate; assay type: biochemical; settings: TABLE 10, 50 μM d9-choline chloride, two hours at 37° C., read-out: TMA Inhibition (IC50, mol/L)
Description: This example provides an exemplary assay for identifying and characterizing compounds that inhibit the formation of TMA from choline.
Proteus mirabilis 29906 (Pm) strain was grown aerobically overnight in 500 ml of Nutrient Broth media (3 g/L beef extract, 5 g/L Peptone; Difco #234000) at 37° C. with 250 rpm shaking. The biomass was pelleted by centrifugation at 6000×g for 12 minutes at 4° C. The cell pellet was suspended in 240 mL of ice-cold 1× Phosphate Buffered Saline (Ca^2+ and Mg^2+ free). Ninety micrograms of Lysozyme (Sigma #L6876 Lot #SLBG8654V; Sigma-Aldrich Corp., St. Louis, Mo.) was added and incubated with 320 rpm shaking for 30 minutes at 4° C. Lysis was achieved via French press with a 4° C. prechilled 1″ diameter chamber at 1000 psi (high ratio; internal PSI equivalent ˜16000). The lysate was centrifuged at 6,000×g for 12 minutes at 4° C. to pellet extra debris. A protein concentration of the centrifuged lysate supernatant was determined by a BCA Protein Assay Kit (Pierce #23225; Thermo Fisher Scientific Co., Waltham, Mass.) and protein concentration adjusted to 3 mg/ml with 1× Dulbecco's phosphate buffered saline (DPBS). […]
The plates were again agitated on a plate shaker for 1 minute and incubated at 37° C. for two hours. […] The supernatant was removed and analyzed as described below. […]

[2] = test system: human fecal polymicrobial community; experiment: Example 11: human fecal polymicrobial incubation with d9-choline, compound screening; assay type: cell-based; settings: TABLE 11, fecal slurry, 50 μM d9-choline chloride, 20 hours, doses 250 μM to 0.238 nM, read-out: TMA Inhibition (IC50, mol/L)
Description: Human fecal polymicrobial incubation with deuterium labeled choline compound screening method, including cell viability assay. All materials were pre-reduced in an anaerobic chamber for 24 hours before using in the experiments and experimental procedures were performed under anaerobic conditions (chamber purged with 85% nitrogen, 5% hydrogen, 10% carbon dioxide).
Human fecal samples were collected from a healthy volunteer with no chronic illnesses, blood borne diseases or active infections. The volunteer had not received antibiotics within two months prior to donation and provided written informed consent. Samples were diluted to make a 20% (w/v) fecal slurry by resuspension of the feces in a media containing 3% (w/v) tryptic soy broth (BBL #211825), 1% (w/v) trehalose (Sigma #T9631), pH 7.3. The fecal slurry was homogenized and filtered by hand using a stomacher bag with an integrated 170 μm membrane. DMSO (5% (w/v)) was added to the filtered slurry and aliquots were stored in cryogenic vials at −80° C. until use. […] After 20 hours, an aliquot of the fecal polymicrobial community was analyzed for viability using PrestoBlue cell viability reagent (Thermo Fisher Scientific, USA) as described below. […] The products were determined by LC/MS/MS and IC50 values were calculated as described previously for detection and analysis of TMA and d9-TMA in EXAMPLE 9. […]

`C[S+](C)(=O)CCO` [(2-hydroxyethyl) dimethylsulfoxonium chloride] gave an IC50 [1] of 7.74 nM and an IC50 [2] of 97.3 nM.
